The structures appear in SMILES notation.

In one test the target is KDR (Homo sapiens (Human), UniProt P35968). As to the kind of experiment: KDR autophosphorylation ELISA in HUVEC cells. It is filed as cell-based. The following applies: cellular, VEGF165-stimulated, phospho-KDR ELISA. In a few lines:
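Serum-starved (24 h) HUVECs were pre-treated with compound (8-point dose curve, 0.3% DMSO final) for 1 h, then stimulated with 100 ng/mL human VEGF165 for 5 min. Lysate phospho-KDR was quantified by ELISA against a phospho-KDR standard. IC50 came from a 4-parameter logistic fit, normalized to stimulated-DMSO (100%) and unstimulated (0%) controls.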

Test [1] deals with T1, Met (Homo sapiens (Human), UniProt P08581). In words: Human Met kinase assay (33P radiometric, KinaseProfiler). To be noted: 10 μM ATP, read-out: c-Met IC50. It counts as biochemical.
Test [2] addresses T1, Met. As to the kind of experiment: Met autophosphorylation ELISA in PC-3 cells. To be noted: cellular, HGF-stimulated, phospho-Met ELISA, read-out: c-Met IC50. It counts as cell-based. The method, boiled down: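 Serum-starved PC-3 cells treated 1 h with compound (8-point series, 0.3% DMSO), then stimulated 10 min with 100 ng/mL HGF. Phospho-Met (panTyr) quantified in lysates by sandwich ELISA; IC50 from 4-parameter logistic fit against DMSO and reference-inhibitor controls.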
Target sequence in this assay (P08581 25-1390): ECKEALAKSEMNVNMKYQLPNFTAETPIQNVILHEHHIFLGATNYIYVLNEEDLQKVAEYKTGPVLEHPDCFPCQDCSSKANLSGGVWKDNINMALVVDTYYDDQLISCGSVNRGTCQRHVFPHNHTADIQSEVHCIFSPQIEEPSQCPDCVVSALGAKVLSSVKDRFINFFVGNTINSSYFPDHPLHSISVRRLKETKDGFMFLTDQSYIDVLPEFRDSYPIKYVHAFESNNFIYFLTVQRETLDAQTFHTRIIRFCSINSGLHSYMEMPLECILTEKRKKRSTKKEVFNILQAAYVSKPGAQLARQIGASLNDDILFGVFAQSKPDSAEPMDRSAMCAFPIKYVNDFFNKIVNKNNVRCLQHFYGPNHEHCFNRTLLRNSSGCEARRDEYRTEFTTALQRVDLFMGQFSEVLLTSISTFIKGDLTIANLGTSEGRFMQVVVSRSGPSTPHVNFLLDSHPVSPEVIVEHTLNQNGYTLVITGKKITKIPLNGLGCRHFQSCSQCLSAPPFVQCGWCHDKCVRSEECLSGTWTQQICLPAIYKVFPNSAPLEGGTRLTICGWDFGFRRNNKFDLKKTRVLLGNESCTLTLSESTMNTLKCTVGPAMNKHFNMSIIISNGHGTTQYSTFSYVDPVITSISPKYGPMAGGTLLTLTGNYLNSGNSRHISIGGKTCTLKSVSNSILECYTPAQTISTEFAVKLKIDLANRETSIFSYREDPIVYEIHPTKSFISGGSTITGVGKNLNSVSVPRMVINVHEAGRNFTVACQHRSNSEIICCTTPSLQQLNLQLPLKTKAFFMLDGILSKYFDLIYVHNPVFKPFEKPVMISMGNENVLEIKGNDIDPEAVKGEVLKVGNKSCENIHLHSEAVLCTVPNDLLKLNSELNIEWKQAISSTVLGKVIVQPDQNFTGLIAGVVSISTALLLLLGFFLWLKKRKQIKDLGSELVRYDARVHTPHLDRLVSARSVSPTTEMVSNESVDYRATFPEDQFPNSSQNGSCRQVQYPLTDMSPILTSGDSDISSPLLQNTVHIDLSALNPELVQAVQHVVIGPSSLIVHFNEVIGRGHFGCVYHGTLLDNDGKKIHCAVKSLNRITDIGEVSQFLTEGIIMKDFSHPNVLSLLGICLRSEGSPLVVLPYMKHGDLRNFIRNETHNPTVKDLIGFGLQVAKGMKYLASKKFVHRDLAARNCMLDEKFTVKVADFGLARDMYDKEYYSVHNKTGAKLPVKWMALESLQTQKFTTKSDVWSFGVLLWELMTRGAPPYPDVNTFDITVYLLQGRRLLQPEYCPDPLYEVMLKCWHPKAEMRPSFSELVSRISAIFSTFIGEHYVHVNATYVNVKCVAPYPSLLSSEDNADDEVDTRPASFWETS

For another test, the target named is Human Axl (Homo sapiens (Human), UniProt P30530, Q764R). In words: Human AXL kinase assay (33P radiometric, KinaseProfiler). It counts as biochemical. The following applies: 10 μM ATP.
Human Axl, sequence (P30530 473-894 Q764R): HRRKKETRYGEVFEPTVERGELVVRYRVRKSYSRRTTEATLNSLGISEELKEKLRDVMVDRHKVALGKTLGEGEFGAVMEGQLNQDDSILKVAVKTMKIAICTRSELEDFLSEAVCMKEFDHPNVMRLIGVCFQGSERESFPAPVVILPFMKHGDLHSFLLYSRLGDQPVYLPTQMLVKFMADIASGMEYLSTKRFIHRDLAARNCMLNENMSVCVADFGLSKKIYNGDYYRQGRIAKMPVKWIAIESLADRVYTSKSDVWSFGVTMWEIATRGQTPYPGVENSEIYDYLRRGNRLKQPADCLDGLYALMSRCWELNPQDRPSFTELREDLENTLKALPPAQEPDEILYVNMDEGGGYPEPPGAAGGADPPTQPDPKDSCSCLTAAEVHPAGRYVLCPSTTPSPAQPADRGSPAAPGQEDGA

KDR, sequence (P35968 20-1356): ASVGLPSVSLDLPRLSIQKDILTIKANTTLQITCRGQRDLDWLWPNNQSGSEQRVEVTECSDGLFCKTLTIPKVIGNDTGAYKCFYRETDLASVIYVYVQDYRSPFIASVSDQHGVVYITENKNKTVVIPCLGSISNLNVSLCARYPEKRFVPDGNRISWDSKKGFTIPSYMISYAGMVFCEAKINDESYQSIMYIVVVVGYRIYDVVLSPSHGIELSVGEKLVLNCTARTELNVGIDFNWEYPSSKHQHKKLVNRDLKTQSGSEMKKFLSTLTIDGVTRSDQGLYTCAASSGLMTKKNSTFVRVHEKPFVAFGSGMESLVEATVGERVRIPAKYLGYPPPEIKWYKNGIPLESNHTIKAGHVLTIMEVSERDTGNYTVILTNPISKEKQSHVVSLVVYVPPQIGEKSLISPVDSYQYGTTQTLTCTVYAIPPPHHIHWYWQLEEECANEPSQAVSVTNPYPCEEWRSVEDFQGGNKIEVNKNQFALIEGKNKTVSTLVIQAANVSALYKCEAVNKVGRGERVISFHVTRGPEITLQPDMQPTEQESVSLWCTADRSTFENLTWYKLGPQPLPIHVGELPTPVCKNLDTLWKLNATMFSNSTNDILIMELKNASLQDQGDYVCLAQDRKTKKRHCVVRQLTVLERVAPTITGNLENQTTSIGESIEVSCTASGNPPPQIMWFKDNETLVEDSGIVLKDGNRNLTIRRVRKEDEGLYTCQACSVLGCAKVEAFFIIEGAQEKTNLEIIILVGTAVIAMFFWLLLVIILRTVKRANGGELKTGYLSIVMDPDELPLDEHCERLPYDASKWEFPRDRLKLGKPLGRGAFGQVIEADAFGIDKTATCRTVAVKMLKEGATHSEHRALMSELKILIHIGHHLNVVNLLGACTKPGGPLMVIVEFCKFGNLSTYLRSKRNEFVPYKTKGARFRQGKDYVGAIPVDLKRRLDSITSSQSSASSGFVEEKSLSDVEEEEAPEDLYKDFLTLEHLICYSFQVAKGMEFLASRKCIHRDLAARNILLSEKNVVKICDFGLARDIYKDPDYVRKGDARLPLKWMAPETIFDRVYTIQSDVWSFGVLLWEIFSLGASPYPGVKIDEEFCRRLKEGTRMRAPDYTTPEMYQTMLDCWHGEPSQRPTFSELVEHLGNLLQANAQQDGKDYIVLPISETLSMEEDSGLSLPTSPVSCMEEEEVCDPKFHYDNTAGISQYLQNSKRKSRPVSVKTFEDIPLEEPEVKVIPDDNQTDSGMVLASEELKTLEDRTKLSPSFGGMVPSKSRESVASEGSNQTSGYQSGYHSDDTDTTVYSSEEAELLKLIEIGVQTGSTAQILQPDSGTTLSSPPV

Consider `COc1cc2ncnc(Oc3ccc(NC(=O)C4(C(=O)Nc5ccc(F)cc5)CC4)cc3)c2nc1OC` [Compound 28, 1-N-[4-(6,7-dimethoxy-pyrido[3,2-d]pyrimidin-4-yl)oxyphenyl]-1-N′-(4-fluorophenyl)cyclo-propane-1,1-dicarboxamide], for which the IC50 against KDR is 0.01 to 0.1 µM; on Met [1] it was 0.01 to 0.1 µM; at Met [2], 0.1 to 0.3 µM; on Human Axl, at most 0.01 µM.

In the case of `COc1cc2ncnc(Oc3ccc(NC(=O)C4(C(=O)Nc5ccc(F)cc5)CC4)cc3Cl)c2nc1OC` [Compound 29, 1-N′-[3-chloro-4-(6,7-dimethoxypyrido[3,2-d]pyrimidin-4-yl)oxyphenyl]-1-N-(4-fluorophenyl)cyclo-propane-1,1-dicarboxamide], the IC50 against KDR is at most 0.01 µM; at Met [1], at most 0.01 µM; on Met [2] it was 0.01 to 0.1 µM; on Human Axl, 0.01 to 0.1 µM.

Turning to `COc1cc2ncnc(Oc3ccc(NC(=O)C4(C(=O)Nc5ccc(F)cc5)CC4)cc3F)c2nc1OC` [Compound 30, 1-N′-[4-(6,7-dimethoxypyrido[3,2-d]pyrimidin-4-yl)oxy-3-fluorophenyl]-1-N-(4-fluorophenyl)cyclopropane-1,1-dicarboxamide], the IC50 against KDR was at most 0.01 µM; at Met [1], at most 0.01 µM; at Met [2], 0.01 to 0.1 µM; on Human Axl, at most 0.01 µM.

In the case of `COc1nc2c(Oc3ccc(NC(=O)C4(C(=O)Nc5ccc(F)cc5)CC4)cc3)ncnc2cc1OCCCN1CCOCC1` [Compound 65, 1-N′-(4-fluorophenyl)-1-N-[4-[6-methoxy-7-(3-morpholin-4-ylpropoxy)pyrido[3,2-d]pyrimidin-4-yl]oxyphenyl]cyclopropane-1,1-dicarboxamide], the half-maximal inhibitory concentration (IC50) is at most 0.01 µM at KDR, 0.01 to 0.1 µM on Met [1], 0.01 to 0.1 µM at Met [2] and 0.01 to 0.1 µM against Human Axl.

As for `COc1nc2c(Oc3ccc(NC(=O)C4(C(=O)Nc5ccc(F)cc5)CC4)cc3Cl)ncnc2cc1OCCCN1CCOCC1` [Compound 66, 1-N′-[3-chloro-4-[6-methoxy-7-(3-morpholin-4-ylpropoxy)pyrido[3,2-d]pyrimidin-4-yl]oxyphenyl]-1-N-(4-fluorophenyl)cyclo-propane-1,1-dicarboxamide], the IC50 against KDR was at most 0.01 µM; at Met [1] it was at most 0.01 µM; on Met [2], 0.01 to 0.1 µM; on Human Axl, at most 0.01 µM.

With `COc1nc2c(Oc3ccc(NC(=O)C4(C(=O)Nc5ccc(F)cc5)CC4)cc3F)ncnc2cc1OCCCN1CCOCC1` [Compound 67, 1-N′-[3-fluoro-4-[6-methoxy-7-(3-morpholin-4-ylpropoxy)pyrido[3,2-d]pyrimidin-4-yl]oxyphenyl]-1-N-(4-fluorophenyl)cyclo-propane-1,1-dicarboxamide], the IC50 against KDR was at most 0.01 µM; on Met [1], at most 0.01 µM; at Met [2], 0.01 to 0.1 µM; against Human Axl, at most 0.01 µM.

In the case of `COc1cc2c(Oc3ccc(NC(=O)C4(C(=O)Nc5ccc(F)cc5)CC4)cc3)ncnc2cn1` [Compound 91, 1-N′-(4-fluorophenyl)-1-N-[4-(6-methoxypyrido[3,4-d]pyrimidin-4-yl)oxyphenyl]cyclopropane-1,1-dicarboxamide], the IC50 is over 0.3 µM at KDR, 0.1 to 1 µM on Met [1], over 0.3 µM at Met [2] and 0.1 to 1 µM at Human Axl.

On to `COc1cc2ncnc(Oc3ccc(NC(=O)C4(C(=O)Nc5ccc(F)cc5)CC4)cc3)c2cn1` [Compound 104, 1-N′-(4-fluorophenyl)-1-N-[4-(7-methoxypyrido[4,3-d]pyrimidin-4-yl)oxy-phenyl]cyclopropane-1,1-dicarboxamide], for which the half-maximal inhibitory concentration (IC50) against KDR was over 0.3 µM; at Met [1], 0.01 to 0.1 µM; at Met [2], over 0.3 µM; on Human Axl it was 0.01 to 0.1 µM.

`COc1cc2ncnc(Oc3ccc(NC(=O)C4(C(=O)Nc5ccc(F)cc5)CC4)cc3)c2cc1C(=O)NC1COC1` [Compound 115, 1-N′-(4-fluorophenyl)-1-N-[4-[7-methoxy-6-(oxetan-3-ylcarbamoyl)quinazolin-4-yl]oxyphenyl]cyclopropane-1,1-dicarboxamide]: the IC50 was 0.01 to 0.1 µM at KDR, 0.01 to 0.1 µM on Met [1], 0.1 to 0.3 µM at Met [2] and 0.01 to 0.1 µM against Human Axl.

Take `COc1cc2ncnc(Oc3ccc(NC(=O)C4(C(=O)Nc5ccc(F)cc5)CC4)cc3)c2cc1C(=O)NC1CC1` [Compound 116, 1-N-[4-[6-(cyclopropylcarbamoyl)-7-methoxyquinazolin-4-yl]oxyphenyl]-1-N′-(4-fluorophenyl)cyclopropane-1,1-dicarboxamide]: the IC50 against KDR was in the range of 0.01 to 0.1 µM; at Met [1], 0.01 to 0.1 µM; at Met [2], 0.1 to 0.3 µM; at Human Axl it was 0.01 to 0.1 µM.

Regarding `COc1cc2ncnc(Oc3ccc(NC(=O)C4(C(=O)Nc5ccc(F)cc5)CC4)cc3)c2cc1C(N)=O` [Compound 117, 1-N-[4-(6-carbamoyl-7-methoxyquinazolin-4-yl)oxyphenyl]-1-N′-(4-fluorophenyl)cyclopropane-1,1-dicarboxamide], the IC50 on KDR was in the range of 0.01 to 0.1 µM; on Met [1], 0.01 to 0.1 µM; at Met [2], 0.1 to 0.3 µM; against Human Axl, 0.01 to 0.1 µM.

Take `COc1cc2ncnc(Oc3ccc(NC(=O)C4(C(=O)Nc5ccc(F)cc5)CC4)cc3)c2cc1C(=O)NCCN1CCCC1` [Compound 118, 1-N′-(4-fluorophenyl)-1-N-[4-[7-methoxy-6-(2-pyrrolidin-1-ylethyl-carbamoyl)quinazolin-4-yl]oxyphenyl]cyclopropane-1,1-dicarboxamide]: the IC50 fell in the range of 0.1 to 0.3 µM on KDR, 0.01 to 0.1 µM at Met [1], 0.1 to 0.3 µM on Met [2] and 0.01 to 0.1 µM against Human Axl.

`COc1cc2ncnc(Oc3ccc(NC(=O)C4(C(=O)Nc5ccc(F)cc5)CC4)cc3)c2cc1C(=O)NC[C@H]1CCCN1C(=O)OC(C)(C)C` [Compound 119, tert-butyl (2R)-2-[[[4-[4-[[1-[(4-fluoro-phenyl)carbamoyl]cyclo-propane-carbonyl]amino]phenoxy]-7-methoxyquinazoline-6-carbonyl]amino]methyl]pyr-rolidine-1-carboxylate]: the IC50 against KDR was 0.01 to 0.1 µM; at Met [1] it was 0.1 to 1 µM; at Met [2], over 0.3 µM; on Human Axl, 0.01 to 0.1 µM.

On to `COc1cc2ncnc(Oc3ccc(NC(=O)C4(C(=O)Nc5ccc(F)cc5)CC4)cc3)c2cc1C(=O)NC[C@@H]1CCCN1C(=O)OC(C)(C)C` [Compound 120, tert-butyl (2S)-2-[[[4-[4-[[1-[(4-fluoro-phenyl)carbamoyl]cyclo-propane-carbonyl]amino]phenoxy]-7-methoxyquinazoline-6-carbonyl]amino]methyl]pyr-rolidine-1-carboxylate], for which the IC50 was 0.1 to 0.3 µM against KDR, 0.1 to 1 µM at Met [1], over 0.3 µM on Met [2] and 0.01 to 0.1 µM at Human Axl.

As to `COc1cc2ncnc(Oc3ccc(NC(=O)C4(C(=O)Nc5ccc(F)cc5)CC4)cc3)c2cc1C(=O)NC[C@H]1CCCN1` [Compound 121, 1-N′-(4-fluorophenyl)-1-N-[4-[7-methoxy-6-[[(2R)-pyrrolidin-2-yl]methyl-carbamoyl]quinazolin-4-yl]oxyphenyl]cyclopropane-1,1-dicarboxamide], the IC50 was 0.1 to 0.3 µM against KDR, at most 0.01 µM at Met [1], 0.1 to 0.3 µM on Met [2] and at most 0.01 µM against Human Axl.

Consider `COc1cc2ncnc(Oc3ccc(NC(=O)C4(C(=O)Nc5ccc(F)cc5)CC4)cc3)c2cc1C(=O)NC[C@@H]1CCCN1` [Compound 122, 1-N′-(4-fluorophenyl)-1-N-[4-[7-methoxy-6-[[(2S)-pyrrolidin-2-yl]methyl-carbamoyl]quinazolin-4-yl]oxyphenyl]cyclopropane-1,1-dicarboxamide], for which the IC50 at KDR was over 0.3 µM; on Met [1] it was 0.01 to 0.1 µM; on Met [2] it was 0.1 to 0.3 µM; at Human Axl it was at most 0.01 µM.

As to `COc1cc2nccc(Oc3ccc(NC(=O)C4(C(=O)Nc5ccc(F)cc5)CC4)cc3)c2nc1OC` [Compound 139, 1-N-[4-[(6,7-dimethoxy-1,5-naphthyridin-4-yl)oxy]phenyl]-1-N′-(4-fluorophenyl)cyclo-propane-1,1-dicarboxamide], the IC50 is at most 0.01 µM against KDR, at most 0.01 µM at Met [1], 0.01 to 0.1 µM at Met [2] and at most 0.01 µM on Human Axl.

For `COc1cc2nccc(Oc3ccc(NC(=O)C4(C(=O)Nc5ccc(F)cc5)CC4)cc3F)c2nc1OC` [Compound 140, 1-N′-[4-[(6,7-dimethoxy-1,5-naphthyridin-4-yl)oxy]-3-fluorophenyl]-1-N-(4-fluorophenyl)cyclopropane-1,1-dicarboxamide], the IC50 against KDR, on Met [1], at Met [2] and at Human Axl was at most 0.01 µM in each case.

In the case of `COc1cc2nccc(Oc3ccc(NC(=O)C4(C(=O)Nc5ccc(F)cc5)CC4)cc3Cl)c2nc1OC` [Compound 141, 1-N′-[3-chloro-4-[(6,7-dimethoxy-1,5-naphthyridin-4-yl)oxy]phenyl]-1-N-(4-fluorophenyl)cyclo-propane-1,1-dicarboxamide], the IC50 on KDR is at most 0.01 µM; on Met [1], at most 0.01 µM; at Met [2], at most 0.01 µM; against Human Axl it was 0.01 to 0.1 µM.

By IC50 is commonly meant the concentration needed to halve the response being measured.

These data come from patent US11708367B2, “Compounds for the treatment of kinase-dependent disorders” (Exelixis, Inc., priority 2018, dated 2023).
